Laboratory results as given in patent US10941157B2, “Pesticidal compositions and uses thereof” (Gilead Apollo, LLC, priority 2015, dated 2021).
Converted amounts (≈) assume the structure as drawn.

How the values were obtained:
Diplodia maydis (Dm) = assay: In vitro pathogen growth inhibition assay, Dm; type: cell-based; conditions: Stenocarpella maydis, 48 h, ≥90% inhibition; 48 hours vs 2% DMSO control; read-out: Compound Concentration (ppm) sufficient for ≥90% inhibition of growth, Dm
How it was run: (§1)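 Spores in 17% V8 liquid medium, or 1.5 mm Rs mycelial plugs in ¼ PDB, incubated with compound; final concentration checked by OD600 for precipitation. OD readings at 24 and 48 h, blank-subtracted, plus visual ratings; value is concentration giving ≥90% growth inhibition.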

[1] = system: Collectotrichum graminicola (Cg); assay: In vitro pathogen growth inhibition assay, Cg; type: cell-based; conditions: 48 h, ≥90% inhibition; 48 hours vs 2% DMSO control; read-out: Compound Concentration (ppm) sufficient for ≥90% inhibition of growth, Cg
How it was run: as §1

Botrtyis cinerea (Bc) = assay: In vitro pathogen growth inhibition assay, Bc; type: cell-based; conditions: 48 h, ≥90% inhibition; 48 hours vs 2% DMSO control; read-out: Compound Concentration (ppm) sufficient for ≥90% inhibition of growth, Bc
How it was run: as §1

Septoria tritici (St) = assay: In vitro pathogen growth inhibition assay, St; type: cell-based; conditions: Zymoseptoria tritici, 48 h, ≥90% inhibition; 48 hours vs 2% DMSO control; read-out: Compound Concentration (ppm) sufficient for ≥90% inhibition of growth, St
How it was run: as §1

Fusarium graminearum = type: in vivo; conditions: spray on flowering Triticum aestivum cv. Samson, inoculated 24 hours after treatment, evaluated 14 days later
[2] = system: Mycosphaerella graminicola (synthetic Septoria tritici); assay: Foliar protection test for wheat septoria leaf blotch control; type: in vivo; conditions: foliar spray on Triticum aestivum cv. WinterHawk, inoculated 1 hour after treatment, evaluated 16 days later
[3] = system: Phytophthora capsici (Pc); assay: In vitro pathogen growth inhibition assay, Pc; type: cell-based; conditions: 48 h, ≥90% inhibition, 48 hours vs 2% DMSO control, read-out: Compound Concentration (ppm) sufficient for ≥90% inhibition of growth, Pc
How it was run: as §1

Sphaerotheca fuliginea = assay: Foliar protection for cucumber powdery mildew control; type: in vivo; conditions: foliar spray on Cucumis sativus cv. Straight Eight, inoculated 24 hours after treatment, evaluated 7 days later
How it was run: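 Cucumber plants (cv. Straight Eight, 10 days old) sprayed to wetness on both leaf surfaces, then inoculated 24 h later by shaking sporulating stock plants over them. Held at 23–27 °C, 16 h light, 60% RH. Mildew colonization scored 7 days after inoculation, at compound concentrations of 10 ppm or lower.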

[4] = system: Blumeria graminis f. sp. hordei; assay: Foliar protection test for barley powdery mildew control; type: in vivo; conditions: foliar spray on Hordeum vulgare cv. Perry, inoculated 24 hours after treatment, evaluated 7 days later
How it was run: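 Six-day-old barley (cv. Perry) sprayed to wetness on both leaf sides; 24 h later inoculated by shaking spores from infected stock plants. Kept at 20 to 22° C, 70% relative humidity; mildew colonization assessed 7 days later.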

[5] = system: Fusarium virguliforme (Fv); assay: In vitro pathogen growth inhibition assay, Fv; type: cell-based; conditions: ≥90% inhibition, 48 hours vs 2% DMSO control, read-out: Compound Concentration (ppm) sufficient for ≥90% inhibition of growth, Fv
How it was run: as §1

[6] = system: Fusarium moniliforme (Fm); assay: In vitro pathogen growth inhibition assay, Fm; type: cell-based; conditions: Fusarium verticillioides; ≥90% inhibition; 48 hours vs 2% DMSO control; read-out: Compound Concentration (ppm) sufficient for ≥90% inhibition of growth, Fm
How it was run: as §1

[7] = system: Saccharomyces cerevisiae (Sc); assay: Yeast growth inhibition assay; type: cell-based; conditions: Saccharomyces cerevisiae, ≥75% inhibition, read-out: Compound Concentration (ppm) sufficient for ≥75% inhibition, Sc
Protocol: Both tables list the concentration of each compound that was sufficient to ≥90% inhibition of growth for each of the fungal pathogens listed above. In addition, some of compounds were tested in a yeast growth inhibition assay for Saccharomyces cerevisiae (Sc). Table 2 lists the concentration of the tested compound that was sufficient to ≥75% inhibition of Saccharomyces cerevisiae (Sc).

Rhizoctonia solani (Rs) = assay: In vitro pathogen growth inhibition assay, Rs (mycelial plugs); type: cell-based; conditions: Rhizoctonia solani, 48 h, ≥90% inhibition; mycelial plugs; 48 hours vs 2% DMSO control; read-out: Compound Concentration (ppm) sufficient for ≥90% inhibition of growth, Rs
How it was run: as §1

Phakopsora pachyrhizi = assay: Foliar protection test for Asian soybean rust control; type: in vivo; conditions: foliar application to soybean (Glycine max AG4832), percent disease area evaluated 14 days later
Puccinia triticina = assay: Foliar protection test for wheat leaf rust control; type: in vivo; conditions: foliar application to wheat (Triticum aestivum cv. Winterhawk), evaluated 10 days later
Rhizoctonia solani = assay: Seed protectant for soybean seedling disease, R. solani; type: in vivo; conditions: soybean from treated seeds, 0.025 mg/seed, R. solani inoculated; for Plant Weight: fresh weight at 14 days; for Improvement in plant weight: percentage of non-inoculated non-treated controls
Protocol: (§2) The pathogen of Rhizoctonia solani inoculum was grown on sterile sorghum; and the pathogen of Pythium ultimum inoculum was grown on white millet.
(§3) Soybean seeds (Glycine max cv. AG4832) were planted in 2.5-inch square pots containing Berger BM2 germination mix amended with fertilizer (e.g., 14-14-14). Pots with soil were inoculated with the pathogen of R. solani or P. ultimum at time of planting. A hole was pressed into the soil to a depth of about 2 to 3 cm; the inoculum was added to the hole, followed by the seed which was then covered with soil. Two seeds per pot were planted. Plants were grown in a growth chamber at conditions of 20 to 24° C., 14 hour light cycle, 500 uM of light, and 65% humidity. The pots inoculated with P. ultimum were sub-irrigated every day; and the pots inoculated with R. solani were sub-irrigated every other day.
(§4) Seedling emergence was captured at 7 and 14 days after seeding. At 14 days, the top of the plant was removed and fresh weight was recorded. The plant weights from the seeds treated with test compounds (e.g., in formulations) were compared to the ones either from the inoculated non-treated seeds or non-inoculated non-treated seeds. Table 10 lists the results of the R. solani control in soybean upon seed treatment with test compounds, and Table 11 lists the results of the P. ultimum control in soybean upon seed treatment with test compounds, respectively.

Pythium ultimum = assay: Seed protectant for soybean seedling disease, P. ultimum; type: in vivo; conditions: soybean from treated seeds, 0.025 mg/seed, P. ultimum inoculated; for Plant Weight: fresh weight at 14 days; for Improvement in plant weight: percentage of non-inoculated non-treated controls
Protocol: as §2, §3, §4

SMILES | IC90 (Diplodia maydis (Dm)) [µg/mL] | IC90 [1] [µg/mL] | IC90 (Botrtyis cinerea (Bc)) [µg/mL] | IC90 (Septoria tritici (St)) [µg/mL] | Wheat Fusarium Head Blight Control at a compound concentration of 25 ppm or lower (Fusarium graminearum) | Septoria Leaf Blotch Control at a compound concentration of 25 ppm or lower [2] | IC90 [3] [µg/mL] | Cucumber Powdery Mildew Control at a compound concentration of 10 ppm or lower (Sphaerotheca fuliginea) | Barley Powdery Mildew Control at a compound concentration of 10 ppm or lower [4] | IC90 [5] [µg/mL] | IC90 [6] [µg/mL] | IC75 [7] [µg/mL] | IC90 (Rhizoctonia solani (Rs)) [µg/mL] | Asian Soybean Rust Control at a compound concentration of 25 ppm or lower (Phakopsora pachyrhizi) | Wheat Leaf Rust Control at a compound concentration of 10 ppm or lower (Puccinia triticina) | Plant Weight (Rhizoctonia solani) [g] | Improvement in plant weight (Rhizoctonia solani) [%] | Plant Weight (Pythium ultimum) [g] | Improvement in plant weight (Pythium ultimum) [%]
CCOC(=O)c1sc2c(c1C)c(=O)n(C(C)(C)C(=O)N1CCCC1)c(=O)n2C[C@H](OC1CCOCC1)c1ccccc1OC [Compound I-003, (R)-ethyl-1-(2-(2-methoxyphenyl)-2-((tetrahydro-2H-pyran-4-yl)oxy)ethyl)-5-methyl-3-(2-methyl-1-oxo-1-(pyrrolidin-1-yl)propan-2-yl)-2,4-dioxo-1,2,3,4-tetrahydrothieno[2,3-d]pyrimidine-6-carboxylate] | 2 (≈ 3.19 µM) | 0.4 (≈ 0.637 µM) | 2 (≈ 3.19 µM) | ≥ 10 | B (from 50 to 69% control of wheat fusarium head blight) | C (from 25 to 49% control of wheat septoria leaf blotch) | > 50 | AA (≥85% control of cucumber powdery mildew) | A (from 70% to 84% control of barley powdery mildew) | 0.4 (≈ 0.637 µM) | 0.08 (≈ 0.127 µM) | 0.4 (≈ 0.637 µM) | 0.4 (≈ 0.637 µM) | A (from 70% to 84% control of Asian soybean rust) | AA (≥85% control of wheat leaf rust) |  |  |  | 
COc1ccc(F)cc1[C@H](Cn1c(=O)n(C(C)(C)C(=O)NC(C)C)c(=O)c2c(C)c(-n3cccn3)sc21)OC(C)C [Compound I-014, (R)-2-(1-(2-(5-fluoro-2-methoxyphenyl)-2-isopropoxyethyl)-5-methyl-2,4-dioxo-6-(1H-pyrazol-1-yl)-1,4-dihydrothieno[2,3-d]pyrimidin-3(2H)-yl)-N-isopropyl-2-methylpropanamide] | 2 (≈ 3.41 µM) | 2 (≈ 3.41 µM) | 0.4 (≈ 0.683 µM) | > 10 | C (from 25 to 49% control of wheat fusarium head blight) | D (<25% control of wheat septoria leaf blotch) | > 50 | AA (≥85% control of cucumber powdery mildew) | AA (≥85% control of barley powdery mildew) | 0.4 (≈ 0.683 µM) | 0.08 (≈ 0.137 µM) | 1.2 (≈ 2.05 µM) | 2 (≈ 3.41 µM) | A (from 70% to 84% control of Asian soybean rust) | A (from 70% to 84% control of wheat leaf rust) |  |  |  | 
COc1ccc(F)cc1[C@H](Cn1c(=O)n(C(C)(C)C(=O)NC(C)C)c(=O)c2c(C)c(-n3nccn3)sc21)OCCO [Compound I-064, (R)-2-(1-(2-(5-fluoro-2-methoxyphenyl)-2-(2-hydroxyethoxy)ethyl)-5-methyl-2,4-dioxo-6-(2H-1,2,3-triazol-2-yl)-1,4-dihydrothieno[2,3-d]pyrimidin-3 (2H)-yl)-N-isopropyl-2-methylpropanamide] | 0.4 (≈ 0.68 µM) | 0.4 (≈ 0.68 µM) | 2 (≈ 3.4 µM) | ≥ 2 | C (from 25 to 49% control of wheat fusarium head blight) | A (from 70% to 84% control of wheat septoria leaf blotch) | ≥ 2 | AA (≥85% control of cucumber powdery mildew) | A (from 70% to 84% control of barley powdery mildew) | 0.4 (≈ 0.68 µM) | 0.08 (≈ 0.136 µM) |  | ≥ 0.08 | A (from 70% to 84% control of Asian soybean rust) | AA (≥85% control of wheat leaf rust) | 6.41 | 79.9 | 5.49 | 88
COCCO[C@@H](Cn1c(=O)n(C(C)(C)C(=O)NC(C)C)c(=O)c2c(C)c(-n3nccn3)sc21)c1cc(F)ccc1OC [Compound I-074, (R)-2-(1-(2-(5-fluoro-2-methoxyphenyl)-2-(2-methoxyethoxy)ethyl)-5-methyl-2,4-dioxo-6-(2H-1,2,3-triazol-2-yl)-1,4-dihydrothieno[2,3-d]pyrimidin-3 (2H)-yl)-N-isopropyl-2-methylpropanamide] | 2 (≈ 3.32 µM) | 2 (≈ 3.32 µM) | 2 (≈ 3.32 µM) | > 50 | C (from 25 to 49% control of wheat fusarium head blight) | AA (≥85% control of wheat septoria leaf blotch) | ≥ 50 | AA (≥85% control of cucumber powdery mildew) | AA (≥85% control of barley powdery mildew) | 0.4 (≈ 0.664 µM) | 0.08 (≈ 0.133 µM) |  | 0.4 (≈ 0.664 µM) | C (from 25 to 49% control of Asian soybean rust) | A (from 70% to 84% control of wheat leaf rust) | 2.06 | 25.7 | 4.33 | 69
